Experimental data from BindingDB's records for doi:10.7270/Q2TX3CTT (Broad Institute, 2010).
pEC50: −log10 of the molar value.

Target: Glycogen synthase kinase-3 beta (Homo sapiens, UniProt P49841)
Experiment: GSK3beta kinase inhibitor potency, dose response, biochemical, luminescence, cell-free homogeneous, retest (AID 434954)

Sequence of Glycogen synthase kinase-3 beta (P49841 whole entry): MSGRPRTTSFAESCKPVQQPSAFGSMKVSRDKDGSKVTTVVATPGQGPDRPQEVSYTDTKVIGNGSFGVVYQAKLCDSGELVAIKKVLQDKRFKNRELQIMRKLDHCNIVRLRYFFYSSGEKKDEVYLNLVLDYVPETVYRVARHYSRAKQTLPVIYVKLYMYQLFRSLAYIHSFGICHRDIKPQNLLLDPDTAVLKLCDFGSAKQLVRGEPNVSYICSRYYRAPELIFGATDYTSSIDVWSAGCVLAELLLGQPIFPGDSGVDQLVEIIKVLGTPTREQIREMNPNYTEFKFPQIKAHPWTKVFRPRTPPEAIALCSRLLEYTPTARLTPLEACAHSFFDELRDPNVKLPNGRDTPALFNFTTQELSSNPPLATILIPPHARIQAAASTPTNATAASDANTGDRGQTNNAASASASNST

Compound	pEC50
COC(=O)c1c(N)c(C#N)c2n1CCCCC2 [methyl 2-amino-1-cyano-6,7,8,9-tetrahydro-5H-pyrrolo[1,2-a]azepine-3-carboxylate]	< 3.52
COC(=O)c1c(C)oc2ccc(OC(=O)c3cccs3)cc12 [methyl 2-methyl-5-thiophen-2-ylcarbonyloxy-1-benzofuran-3-carboxylate]	< 3.52
COC(=O)c1sc(=S)n(Cc2ccccc2)c1C [methyl 3-benzyl-4-methyl-2-sulfanylidene-1,3-thiazole-5-carboxylate]	< 3.52
COC(=O)c1ccc(CSc2nnc(-c3ccncc3)o2)o1 [methyl 5-({[5-(4-pyridinyl)-1,3,4-oxadiazol-2-yl]thio}methyl)-2-furoate]	4.90
COC(=O)[C@@H]1Cc2c([nH]c3ccccc23)C2CCC(=O)N21 (stereo partly drawn) [methyl (5S)-3-oxidanylidene-1,2,5,6,11,11b-hexahydroindolizino[8,7-b]indole-5-carboxylate]	< 3.52
OC(c1ccccc1)c1ccncc1 (stereo not given) [phenyl(pyridin-4-yl)methanol]	< 3.52
CCN(CC)Cc1c(C(=O)OC(C)C)nnn1-c1nonc1N [propan-2-yl 1-(4-azanyl-1,2,5-oxadiazol-3-yl)-5-(diethylaminomethyl)-1,2,3-triazole-4-carboxylate]	< 3.52
COc1ccc(Nc2nc(N)c(C(=O)c3ccc(OC)cc3)s2)cc1 [{4-amino-2-[(4-methoxyphenyl)amino]-1,3-thiazol-5-yl}(4-methoxyphenyl)methanone]	6.50

Results, then the compound that gave them:

pEC50	Compound
5.03	COC(=O)CSc1ccc2nnc(-c3ccc(F)cc3)n2n1 [methyl 2-[[3-(4-fluorophenyl)-[1,2,4]triazolo[4,3-b]pyridazin-6-yl]sulfanyl]ethanoate]
< 3.52	COC(=O)c1sccc1NC(=O)c1cccc(OC)c1 [methyl 3-[(3-methoxyphenyl)carbonylamino]thiophene-2-carboxylate]
< 3.52	COC(=O)c1cc(C(=O)Nc2cc(C)ccn2)cc([N+](=O)[O-])c1 [methyl 3-{[(4-methyl-2-pyridinyl)amino]carbonyl}-5-nitrobenzoate]
< 3.52	COC(=O)c1ccc(NC(C(=O)OC)C(C)C)c([N+](=O)[O-])c1 (stereo not given) [methyl 4-[(1-methoxy-3-methyl-1-oxidanylidene-butan-2-yl)amino]-3-nitro-benzoate]
< 3.52	COC(=O)C1=C(C)N(CCc2cc(OC)c(OC)c(OC)c2)C(=O)N[C@H]1c1ccccc1 [methyl (6S)-4-methyl-2-oxo-6-phenyl-3-[2-(3,4,5-trimethoxyphenyl)ethyl]-1,6-dihydropyrimidine-5-carboxylate]
< 3.52	C=CCN=C(NC#N)SC [methyl N-cyano-N'-prop-2-enyl-carbamimidothioate]
6.18	COc1ccc(Nc2nc(N)c(C(=O)c3ccc(F)cc3)s2)cc1 [{4-amino-2-[(4-methoxyphenyl)amino]-1,3-thiazol-5-yl}(4-fluorophenyl)methanone]
